Columns and labels:
Experiment in all cases: Log (Growth) efficacy in aerobic conditions, non-SRB bacteria
Format in all cases: cell-based
Escherichia coli 8739 = system: Escherichia coli 8739
Method: (§1) 24-hour cultures were made of ATCC Escherichia coli 8739, Pseudomonas aeruginosa 15442, Enterobacter aerogenes 13048, and Klebsiella pneumoniae 13883. The cultures were prepared by taking a loop of a pure bacterial colony and inoculating 10 mL of TSB. These were grown for 24 hours at 30° C.
(§2) Following the 24-hour incubation, 600 microliters (μL) were taken from each culture and optical density (OD) was measured using a Thermofisher Spectronic 200 Spectrophotometer at 600 nm. Each culture was diluted to 0.05 OD600 in fresh Phosphate Buffered Saline (PBS). Using these cultures, two deep well plates were prepared. Edge wells were not used due to their inherent variability and evaporation of the media. Each of the components were added at their respective concentrations for a final volume of […] per well. In Table 8, the concentrations of the compound C1 used for the experiments are listed. Each experiment was done with at least three replicates for different treatments and non-treatment controls. Plates were then sealed with a titer-top and incubated in an incubator at 30° C.
(§3) Enumerations were done at each time point, which included 0 hour, 1 hour, 4 hours and 24 hours. Enumeration plates were made to determine the log growth in each dosed sample. For this process, enumeration plates were prepared by adding 180 μL fresh TSB. 20 μL was taken from each well of the challenge plates and transferred to the enumeration plates using a 20-200 μL multichannel pipette. Enumeration plates were mixed three times using the multichannel pipette and serial diluted down the plate tenfold (20 μL into 180 μL). This serial dilution process was repeated for all challenge plate rows giving a total of 6 enumeration plates. These enumeration plates were read after 24-hours and by counting the number of turbid wells in a row.

[1] = system: Klebsiella pneumoniae 13883
Method: as §1, §2, §3

[2] = system: Pseudomonas aeruginosa 15442
Method: as §1, §2, §3

[3] = system: Enterobacter aerogenes 13048
Method: as §1, §2, §3

## O=C(CN1C(=O)c2cccc3cccc(c23)C1=O)NO [C1]
Escherichia coli 8739; 0 hours, 6.25 PPM
  Log (Growth): 7.000
Escherichia coli 8739; 0 hours, 12.5 PPM
  Log (Growth): 6.667
Escherichia coli 8739; 0 hours, 25 PPM
  Log (Growth): 7.000
Escherichia coli 8739; 0 hours, 50 PPM
  Log (Growth): 7.333
Escherichia coli 8739; 0 hours, 100 PPM
  Log (Growth): 7.000
Escherichia coli 8739; 0 hours, 200 PPM
  Log (Growth): 7.000
Escherichia coli 8739; 1 hour, 6.25 PPM
  Log (Growth): 7.000
Escherichia coli 8739; 1 hour, 12.5 PPM
  Log (Growth): 8.000
Escherichia coli 8739; 1 hour, 25 PPM
  Log (Growth): 7.333
Escherichia coli 8739; 1 hour, 50 PPM
  Log (Growth): 6.333
Escherichia coli 8739; 1 hour, 100 PPM
  Log (Growth): 6.333
Escherichia coli 8739; 1 hour, 200 PPM
  Log (Growth): 6.333
Escherichia coli 8739; 4 hours, 6.25 PPM
  Log (Growth): 7.000
Escherichia coli 8739; 4 hours, 12.5 PPM
  Log (Growth): 7.333
Escherichia coli 8739; 4 hours, 25 PPM
  Log (Growth): 7.000
Escherichia coli 8739; 4 hours, 50 PPM
  Log (Growth): 6.667
Escherichia coli 8739; 4 hours, 100 PPM
  Log (Growth): 7.000
Escherichia coli 8739; 4 hours, 200 PPM
  Log (Growth): 6.667
Escherichia coli 8739; 24 hours, 6.25 PPM
  Log (Growth): 6.333
Escherichia coli 8739; 24 hours, 12.5 PPM
  Log (Growth): 7.333
Escherichia coli 8739; 24 hours, 25 PPM
  Log (Growth): 6.667
Escherichia coli 8739; 24 hours, 50 PPM
  Log (Growth): 7.000
Escherichia coli 8739; 24 hours, 100 PPM
  Log (Growth): 6.667
Escherichia coli 8739; 24 hours, 200 PPM
  Log (Growth): 7.000
[1]; 0 hours, 6.25 PPM
  Log (Growth): 7.667
[1]; 0 hours, 12.5 PPM
  Log (Growth): 6.333
[1]; 0 hours, 25 PPM
  Log (Growth): 6.667
[1]; 0 hours, 50 PPM
  Log (Growth): 6.667
[1]; 0 hours, 100 PPM
  Log (Growth): 6.667
[1]; 0 hours, 200 PPM
  Log (Growth): 6.333
[1]; 1 hour, 6.25 PPM
  Log (Growth): 6.333
[1]; 1 hour, 12.5 PPM
  Log (Growth): 8.000
[1]; 1 hour, 25 PPM
  Log (Growth): 6.333
[1]; 1 hour, 50 PPM
  Log (Growth): 6.000
[1]; 1 hour, 100 PPM
  Log (Growth): 7.333
[1]; 1 hour, 200 PPM
  Log (Growth): 8.000
[1]; 4 hours, 6.25 PPM
  Log (Growth): 7.667
[1]; 4 hours, 12.5 PPM
  Log (Growth): 6.667
[1]; 4 hours, 25 PPM
  Log (Growth): 6.667
[1]; 4 hours, 50 PPM
  Log (Growth): 6.667
[1]; 4 hours, 100 PPM
  Log (Growth): 7.000
[1]; 4 hours, 200 PPM
  Log (Growth): 7.000
[1]; 24 hours, 6.25 PPM
  Log (Growth): 7.333
[1]; 24 hours, 12.5 PPM
  Log (Growth): 7.333
[1]; 24 hours, 25 PPM
  Log (Growth): 6.000
[1]; 24 hours, 50 PPM
  Log (Growth): 6.000
[1]; 24 hours, 100 PPM
  Log (Growth): 7.000
[1]; 24 hours, 200 PPM
  Log (Growth): 7.000
[2]; 0 hours, 6.25 PPM
  Log (Growth): 7.333
[2]; 0 hours, 12.5 PPM
  Log (Growth): 7.667
[2]; 0 hours, 25 PPM
  Log (Growth): 7.333
[2]; 0 hours, 50 PPM
  Log (Growth): 7.667
[2]; 0 hours, 100 PPM
  Log (Growth): 8.000
[2]; 0 hours, 200 PPM
  Log (Growth): 7.667
[2]; 1 hour, 6.25 PPM
  Log (Growth): 7.000
[2]; 1 hour, 12.5 PPM
  Log (Growth): 8.000
[2]; 1 hour, 25 PPM
  Log (Growth): 7.667
[2]; 1 hour, 50 PPM
  Log (Growth): 7.333
[2]; 1 hour, 100 PPM
  Log (Growth): 8.000
[2]; 1 hour, 200 PPM
  Log (Growth): 7.000
[2]; 4 hours, 6.25 PPM
  Log (Growth): 7.000
[2]; 4 hours, 12.5 PPM
  Log (Growth): 8.000
[2]; 4 hours, 25 PPM
  Log (Growth): 7.000
[2]; 4 hours, 50 PPM
  Log (Growth): 7.000
[2]; 4 hours, 100 PPM
  Log (Growth): 7.667
[2]; 4 hours, 200 PPM
  Log (Growth): 7.000
[2]; 24 hours, 6.25 PPM
  Log (Growth): 7.333
[2]; 24 hours, 12.5 PPM
  Log (Growth): 7.000
[2]; 24 hours, 25 PPM
  Log (Growth): 7.333
[2]; 24 hours, 50 PPM
  Log (Growth): 7.667
[2]; 24 hours, 100 PPM
  Log (Growth): 8.000
[2]; 24 hours, 200 PPM
  Log (Growth): 7.667
[3]; 0 hours, 6.25 PPM
  Log (Growth): 7.667
[3]; 0 hours, 12.5 PPM
  Log (Growth): 8.000
[3]; 0 hours, 25 PPM
  Log (Growth): 7.333
[3]; 0 hours, 50 PPM
  Log (Growth): 7.667
[3]; 0 hours, 100 PPM
  Log (Growth): 7.000
[3]; 0 hours, 200 PPM
  Log (Growth): 7.667
[3]; 1 hour, 6.25 PPM
  Log (Growth): 7.667
[3]; 1 hour, 12.5 PPM
  Log (Growth): 8.000
[3]; 1 hour, 25 PPM
  Log (Growth): 7.333
[3]; 1 hour, 50 PPM
  Log (Growth): 7.000
[3]; 1 hour, 100 PPM
  Log (Growth): 7.333
[3]; 1 hour, 200 PPM
  Log (Growth): 8.000
[3]; 4 hours, 6.25 PPM
  Log (Growth): 7.667
[3]; 4 hours, 12.5 PPM
  Log (Growth): 7.667
[3]; 4 hours, 25 PPM
  Log (Growth): 7.667
[3]; 4 hours, 50 PPM
  Log (Growth): 7.333
[3]; 4 hours, 100 PPM
  Log (Growth): 8.000
[3]; 4 hours, 200 PPM
  Log (Growth): 7.000
[3]; 24 hours, 6.25 PPM
  Log (Growth): 6.667
[3]; 24 hours, 12.5 PPM
  Log (Growth): 7.333
[3]; 24 hours, 25 PPM
  Log (Growth): 7.000
[3]; 24 hours, 50 PPM
  Log (Growth): 6.667
[3]; 24 hours, 100 PPM
  Log (Growth): 7.000
[3]; 24 hours, 200 PPM
  Log (Growth): 7.333

Source: patent US20230183640A1, “METABOLIC INHIBITORS WITH EFFICACY FOR INHIBITING SULFIDE PRODUCTION IN HARSH ENVIRONMENTS” (MC (US) 3 LLC, priority 2020, published 2023)
